From patent US10681909B2, “Herbicidal triazoles” (FMC Corporation, priority 2014, dated 2020)

How the values were obtained:
galium [1] = test: Test A postemergence; format: in vivo, Galium aparine; conditions: 0 to 100 scale (0 no effect, 100 complete control), approx. 10 d
Procedure, shortened: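 Weed and crop species in loam–sand blend sprayed preemergence on soil or postemergence at 2–10 cm, one- to two-leaf stage, with chemicals in surfactant-containing solvent. Injury rated visually after ~10 d in greenhouse versus untreated controls on a 0–100 scale (100 = complete control).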

nutsedge, yellow = test: Test C preemergence; format: in vivo, Cyperus esculentus; conditions: for Plant response rating (scale of 0 to 100 where 0 is no effect and 100 is complete control): Nutsedge, Yellow, preemergence; for Nutsedge, Yellow plant response rating (0 to 100): Preemergence, visual rating after 13 to 15 d
Description: (§1) Seeds of plant species selected from blackgrass (Alopecurus myosuroides), ryegrass, Italian (Italian ryegrass, Lolium multiflorum), wheat (winter wheat, Triticum aestivum), galium (catchweed bedstraw, Galium aparine), corn (Zea mays), crabgrass, large (large crabgrass, Digitaria sanguinalis), foxtail, giant, (giant foxtail, Setaria faberii), johnsongrass (Sorghum halepense), lambsquarters (Chenopodium album), morningglory (Ipomoea coccinea), nutsedge, yellow (yellow nutsedge, Cyperus esculentus), pigweed (Amaranthus retroflexus), ragweed (common ragweed, Ambrosia elatior), soybean (Glycine max), barnyardgrass (Echinochloa crus-galli), oilseed rape (Brassica napus), waterhemp (common waterhemp, Amaranthus rudis), and velvetleaf (Abutilon theophrasti) were planted into a blend of loam soil and sand and treated preemergence with test chemicals formulated in a non-phytotoxic solvent mixture which included a surfactant. At the same time, plants selected from these crop and weed species and also chickweed (common chickweed, Stellaria media), oat, wild (wild oat, Avena fatua), and kochia (Kochia scoparia), were planted in pots containing Sunshine Redi-Earth® planting medium comprising spaghnum peat moss, vermiculite, starter nutrients and dolomitic limestone and treated with postemergence applications of test chemicals formulated in the same manner. Plants ranged in height from 2 to 18 cm (1- to 4-leaf stage) for postemergence treatments. […] A dash (-) response means no test result.

pigweed = test: Test C preemergence; format: in vivo, Amaranthus retroflexus; conditions: for Plant response rating (scale of 0 to 100 where 0 is no effect and 100 is complete control): Pigweed, preemergence; for Pigweed plant response rating (0 to 100): Preemergence, visual rating after 13 to 15 d
Description: as §1

waterhemp = test: Test C preemergence; format: in vivo, Amaranthus rudis; conditions: for Waterhemp plant response rating (0 to 100): Preemergence, visual rating after 13 to 15 d
Description: as §1

lambsquarters = test: Test D preemergence; format: in vivo, Chenopodium album; conditions: for Plant response rating: Lambsquarters: scale 0 to 100
Description: (§2) Seeds of plant species selected from bluegrass (annual bluegrass, Poa annua), blackgrass (Alopecurus myosuroides), canarygrass (Phalaris minor), chickweed (common chickweed, Stellaria media), galium (catchweed bedstraw, Galium aparine), bromegrass, down (downy bromegrass, Bromus tectorum), Russian thistle (Salsola kali), field poppy (Papaver rhoeas), field violet (Viola arvensis), foxtail, green (green foxtail, Setaria viridis), deadnettle (henbit deadnettle, Lamium amplexicaule), ryegrass, Ital. (Italian ryegrass, Lolium multiflorum), kochia (Kochia scoparia), lambsquarters (Chenopodium album), oilseed rape (Brassica napus), pigweed (Amaranthus retroflexus), chamomile (scentless chamomile, Matricaria inodora), speedwell (bird's-eye speedwell, Veronica persica), barley, spring (spring barley, Hordeum vulgare), wheat, spring (spring wheat, Triticum aestivum), buckwheat, wild (wild buckwheat, Polygonum convolvulus), wild mustard (Sinapis arvensis), oat, wild (wild oat, Avena fatua), radish, wild (wild radish, Raphanus raphanistrum), […]), barley, winter (winter barley, Hordeum vulgare), and wheat, winter (winter wheat, Triticum aestivum) were planted into a silt loam soil and treated preemergence with test chemicals formulated in a non-phytotoxic solvent mixture which included a surfactant. At the same time, these species were planted in pots containing Sunshine Redi-Earth® planting medium comprising spaghnum peat moss, vermiculite, starter nutrients and dolomitic limestone and treated with postemergence applications of the test chemicals formulated in the same manner. Plants ranged in height from 2 to 18 cm (1- to 4-leaf stage). Treated plants and controls were maintained in a controlled growth environment for 14 to 21 d after which time all species were compared to controls and visually evaluated. […] A dash (-) response means no test result.

oilseed rape = test: Test D preemergence; format: in vivo, Brassica napus; conditions: for Plant response rating: Oilseed Rape: scale 0 to 100
Description: as §2

wheat, spring [2] = test: Test D preemergence; format: in vivo, Triticum aestivum; conditions: for Plant response rating: Wheat, Spring: scale 0 to 100
Description: as §2

wheat, winter [3] = test: Test D preemergence; format: in vivo, Triticum aestivum; conditions: for Plant response rating: Wheat, Winter: scale 0 to 100
Description: as §2

galium [4] = test: Test D postemergence; format: in vivo, Galium aparine; conditions: scale 0 to 100
Description: as §2

barley, spring = test: Test D postemergence; format: in vivo, Hordeum vulgare; conditions: scale 0 to 100
Description: as §2

barley, winter = test: Test D postemergence; format: in vivo, Hordeum vulgare; conditions: scale 0 to 100
Description: as §2

wheat, spring [5] = test: Test D postemergence; format: in vivo, Triticum aestivum; conditions: scale 0 to 100
Description: as §2

wheat, winter [6] = test: Test D postemergence; format: in vivo, Triticum aestivum; conditions: scale 0 to 100
Description: as §2

[7] = 16 g ai/ha, 0 is no effect, 100 is complete control

CCOc1nc(-c2ccccc2)nn1Cc1ccnc(C(F)(F)F)c1 [Compound 27]
35: Plant response rating (scale of 0 to 100 where 0 is no effect and 100 is complete control) (nutsedge, yellow; 125 g ai/ha) | Plant response rating: Wheat, Spring (wheat, spring [2]; 125 g ai/ha) | Plant response rating: Barley, Spring (barley, spring; 62 g ai/ha) | Plant response rating: Barley, Spring (barley, spring; 125 g ai/ha) | Plant response rating: Barley, Winter (barley, winter; 125 g ai/ha) | Plant response rating: Wheat, Spring (wheat, spring [5]; 125 g ai/ha)
60: Plant response rating (scale of 0 to 100 where 0 is no effect and 100 is complete control) (nutsedge, yellow; 250 g ai/ha) | Plant response rating: Oilseed Rape (oilseed rape; 62 g ai/ha)
20: Plant response rating: Wheat, Spring (wheat, spring [2]; 62 g ai/ha) | Plant response rating: Wheat, Spring (wheat, spring [5]; 62 g ai/ha)
80: Plant response rating, Galium (galium [1]; 125 g ai/ha) | Plant response rating: Oilseed Rape (oilseed rape; 125 g ai/ha)
10: Nutsedge, Yellow plant response rating (0 to 100) (nutsedge, yellow; 62 g ai/ha)
85: Plant response rating (0 to 100), Lambsquarters (lambsquarters; [7])
25: Plant response rating (0 to 100), Wheat, Winter (wheat, winter [3]; [7]) | Plant response rating: Barley, Spring (barley, spring; 16 g ai/ha) | Plant response rating: Barley, Spring (barley, spring; 31 g ai/ha) | Plant response rating: Barley, Winter (barley, winter; 31 g ai/ha) | Plant response rating: Wheat, Winter (wheat, winter [6]; 16 g ai/ha) | Plant response rating: Wheat, Winter (wheat, winter [6]; 31 g ai/ha)
70: Plant response rating: Galium (galium [4]; 16 g ai/ha)
95: Plant response rating: Lambsquarters (lambsquarters; 62 g ai/ha) | Plant response rating: Lambsquarters (lambsquarters; 125 g ai/ha)
75: Plant response rating: Galium (galium [4]; 31 g ai/ha)
90: Plant response rating, Galium (galium [1]; 500 g ai/ha)
5: Nutsedge, Yellow plant response rating (0 to 100) (nutsedge, yellow; 31 g ai/ha) | Plant response rating (0 to 100), Oilseed Rape (oilseed rape; [7])
100: Plant response rating (scale of 0 to 100 where 0 is no effect and 100 is complete control) (pigweed; 125 g ai/ha) | Plant response rating (scale of 0 to 100 where 0 is no effect and 100 is complete control) (pigweed; 250 g ai/ha) | Pigweed plant response rating (0 to 100) (pigweed; 31 g ai/ha) | Pigweed plant response rating (0 to 100) (pigweed; 62 g ai/ha) | Waterhemp plant response rating (0 to 100) (waterhemp; 31 g ai/ha) | Waterhemp plant response rating (0 to 100) (waterhemp; 62 g ai/ha) | Plant response rating (scale of 0 to 100 where 0 is no effect and 100 is complete control) (waterhemp; Waterhemp, preemergence, 250 g ai/ha) | Plant response rating: Galium (galium [4]; 62 g ai/ha) | Plant response rating: Galium (galium [4]; 125 g ai/ha)
30: Plant response rating: Wheat, Winter (wheat, winter [3]; 62 g ai/ha) | Plant response rating: Wheat, Winter (wheat, winter [3]; 125 g ai/ha) | Plant response rating: Barley, Winter (barley, winter; 62 g ai/ha) | Plant response rating: Wheat, Winter (wheat, winter [6]; 62 g ai/ha) | Plant response rating: Wheat, Winter (wheat, winter [6]; 125 g ai/ha)
15: Plant response rating (0 to 100), Wheat, Spring (wheat, spring [2]; [7]) | Plant response rating: Barley, Winter (barley, winter; 16 g ai/ha) | Plant response rating: Wheat, Spring (wheat, spring [5]; 16 g ai/ha) | Plant response rating: Wheat, Spring (wheat, spring [5]; 31 g ai/ha)
